Values quoted from earlier work in US20230330076A1, “CONTROLLED RELEASE FORMULATIONS OF FLAVOXATE AND PROCESS FOR PREPARATION THEREOF” (priority 2021, published 2023).
Read-outs that look alike come from different tables or passages of the source.

Experiments:
[1] = not given; remark: listed apart in the source
[2] = tested on: α- and β-noradrenergic, muscarinic, serotoninergic and opiate receptors, and calcium binding sites; settings: rat brain tissue

Compound: Cc1c(-c2ccccc2)oc2c(C(=O)OCCN3CCCCC3)cccc2c1=O.Cl [Flavoxate hydrochloride, 2-piperidinoethyl 3-methylflavone-8-carboxylate hydrochloride]
- T½ (IV dose equimolar to 100 mg): 1.39 h
- apparent volume of distribution (IV dose equimolar to 100 mg): 2.89 L/kg
- dose excreted as MFCA (IV dose equimolar to 100 mg, urine): 47%
- time of peak level of MFCA ([1]; single oral 200 mg dose): 30 to 60 min
- time of peak level of MFCA ([1]; single oral 400 mg dose): around two hours
- AUC for the 400 mg dose relative to the 200 mg dose ([1]; single oral dosing): approximately twice as large
- dose excreted as MFCA ([1]; single oral dosing, within 12 hours): About 50%
- binding activity on receptors [2]: only weak binding activity

Compound: 3-methylflavone carboxylic acid [MFCA]
- apparent volume of distribution (in vivo, iv, 100 mg): 0.20 L/kg
